Molecules are shown by their SMILES.

One assay deals with T1, GST-hMDM2 (aa1-188) (Homo sapiens, UniProt Q00987).
T1 construct: The amino acid residues 1-188 of human MDM2 were expressed as GST-hMDM2 fusion protein; made in house; host or cells: E. coli
The assay can be described thus: Homogeneous time resolved fluorometry (HTRF assay), hMDM2/p53 interaction. The conditions noted are these: HTRF analysis; GST-hMDM2 (aa1-188) / biotinylated-p53 (aa1-83). Format: binding. How it is done: Residues 1-83 of human p53 were expressed as avitag <TM>-trxa-6×his fusion protein (biotinlabelled p53) in E. coli. Each protein was separated from cell homogenate by affinity chromatography.
Specifically, 10 μL GST-hMDM2 was incubated with 10 uL diluted compound in 10% DMSO for 20 minutes at room temperature. 20 μL biotinlabelled-p53 was added to the mixture of GST-hMDM2 and then incubated at room temperature for 60 min. A 10 μL detection buffer consisting of SA-XLent, anti-GST cavernous compound antibody and KF was added to the reaction solution consisting of GST-hMDM2, biotinlabelled-p53 and the compound and was placed at room temperature to achieve equilibrium and maintained for more than 4 h. The final concentration of DMSO in the reaction solution was 2%. Time resolved fluorescence were measured on a microplate multi label reader. The inhibition percentage was calculated relative to nutlin-3.
(Time-resolved FRET reads energy transfer from a long-lived donor to a nearby acceptor.)

The test system of assay [1] is p21 transcripts in SJSA-1 cells. The assay is described as follows: p21 assay (QRT-PCR of p21 transcripts in SJSA-1 cells). The format is cell-based, human. The conditions noted are these: cell assay (SJSA-1 cell), p21 induction, 7 hours incubation. An excerpt:
Inhibition of the interaction between hMDM2 and p53 results in the activation of the p53 pathway via the stabilization and accumulation of p53. P53 activates the transcription of many genes, one of which is p21<WAFT/CIP1>. To evaluate the potency of hMDM2 inhibitors, quantitative reverse transcription polymerase chain reaction (QRT PCR) was used to measure the level of p21 transcripts of compound related cells relative to that of control cells treated with dimethyl sulfoxide (DMSO).
In the first day, SJSA-1 cells were inoculated into 100 μL growth medium (RPMI1640; 10 mM HEPES; 1 mM sodium pyruvate; 1× penicillin streptomycin glutamine (PSQ) and 10% FBS, all reagents were obtained from Invitrogen) at a density of 3×10^4 cells in 96-well cell culture plate. The cells were cultured overnight at 37° C. and 5% CO2 atmosphere.
In the second day, hMDM2 inhibitor was gradient diluted in DMSO(Sigma-Aldrich; St. Louis, Mo.). 5 μl of each compound dilution were added into 245 μl filtered assay medium (RPMI1640, 10% FBS, 10 mM HEPES, 1 mM sodium pyruvate and 1×PSQ). Or the assay was conducted with the presence of 10% human serum or 10% mouse serum, or without serum. Growth medium was removed from inoculated SJSA-1 cell culture plate and replaced by 100 μL assay medium for each well. Then 100 μL culture medium containing diluted inhibitor was added into each well to a final volume 200 μL. The final concentration of the compound was in the range of 0.049 μm-50 μm by dose titration with DMSO as control. The cells were incubated at 37° C. and 5% CO2 for 7 hours with the presence of inhibitor. When incubation was completed, growth medium was removed from cells and the plate was stored at −80° C.
In the third day, giagen BioRobot Universal workstation was used to purify total RNA from SJSA-1 cells treated with inhibitor and DMSO respectively. The purification procedure herein was according to RNeasy96BioRobot8000 test kit provided by Qiagen, Valencia, Calif.
To measure the level of existing p21 transcripts, QRT-PCR was introduced. The levels of p21, housekeeping genes and glyceraldehyde 3-phosphate dehydrogenase (GAPDH) were determined by the total RNA from each inhibitor- or DMSO-treated well by duplicated test. The QRT-PCR reaction was performed on the Applied Biosystems prism 7900ht instrument using the relative quantitative (ΔΔ Ct) method according to the following cycle conditions: 48° C. for 30 minutes, then 95° C. for 10 minutes, and then was 40 cycles consisting of 95° C. for 15 seconds and 60° C. for 1 minute. The data were analyzed by using Applied Biosystems SDS2.2 software, with GAPDH as inner control and DMSO treated samples as calibrators. SDS2.2 software calculated the relative quantification (RQ) or increased fold of p21 level relative to DMSO control for each treated sample. The maximum (100%) p21 induction fold was defined by the maximum value of the fitting curve of the reference compound. The p21 induction fold of each inhibitor dose tested was converted to a value representing the percentage of the maximum value. XLFit software (ID business solutions, Alameda, Calif.) was used to make dose-response curve to calculate the IC50 transit value of each inhibitor tested.

T1 sequence (Q00987 1-188): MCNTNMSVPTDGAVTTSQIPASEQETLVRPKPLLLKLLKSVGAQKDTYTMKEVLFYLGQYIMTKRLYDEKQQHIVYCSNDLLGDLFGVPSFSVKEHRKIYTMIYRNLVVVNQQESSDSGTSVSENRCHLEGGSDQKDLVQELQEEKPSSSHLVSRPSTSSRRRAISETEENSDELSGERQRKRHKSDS

A word on the IC50: it is the point on the concentration scale where inhibition reaches its midpoint. High values mean lower potency, low ones higher potency. Consider `CN=S(=O)(C[C@H](C(C)C)N1C(=O)[C@@](C)(CC(=O)O)C[C@H](c2cccc(Cl)c2)[C@H]1c1ccc(Cl)cc1)C(C)C` (stereo partly drawn) [Compound 003, 2-((3R,5R,6S)-5-(3-chlorophenyl)-6-(4-chlorophenyl)-3-methyl-1-((2S)-3-methyl-1-(N-methyl-2-propylsulfonamido)butyl-2-)-2-oxo-piperidine-3-yl)acetic acid], for which the IC50 against GST-hMDM2 (aa1-188) is less than 10 nM; in assay [1] (Homo sapiens, SJSA-1, 7 h) it was less than 1000 nM.
Taken in the same sequence, the figures for `CCOC(=O)N=S(=O)(C[C@H](C(C)C)N1C(=O)[C@@](C)(CC(=O)Nc2ccc(C(=O)O)c(OC)c2)C[C@H](c2cccc(Cl)c2)[C@H]1c1ccc(Cl)cc1)C(C)C` (stereo partly shown) [Compound 052] were less than 10 nM and less than 1000 nM.
The matching figures for `COc1cc(NC(=O)C[C@@]2(C)C[C@H](c3cccc(Cl)c3)[C@@H](c3ccc(Cl)cc3)N([C@H](CS(=O)(=NC(=O)N(C)C)C(C)C)C(C)C)C2=O)ccc1C(=O)O` (stereo partly shown) [Compound 049]: less than 10 nM and less than 1000 nM.
`C=CC(=O)N=[S@@](=O)(C[C@H](C(C)C)N1C(=O)[C@@](C)(CC(=O)O)C[C@H](c2cccc(Cl)c2)[C@H]1c1ccc(Cl)cc1)C(C)C` [Compound 041]: the IC50 on GST-hMDM2 (aa1-188) is 10 to 100 nM; in assay [1] (Homo sapiens, SJSA-1, 7 h), less than 1000 nM.
As for `CC(C)[C@@H](CS(=O)(=O)C(C)C)N1C(=O)[C@@](C)(CC(=O)NS(=N)(=O)C2(C)CC2)C[C@H](c2cccc(Cl)c2)[C@H]1c1ccc(Cl)cc1` (stereo partly shown) [Compound 028B], the values for the IC50 (on GST-hMDM2 (aa1-188); in assay [1]) were 10 to 100 nM and 1000 to 10000 nM, respectively.
Turning to `CC(=O)N=[S@@](=O)(C[C@H](C(C)C)N1C(=O)[C@@](C)(CC(=O)O)C[C@H](c2cccc(Cl)c2)[C@H]1c1ccc(Cl)cc1)C(C)C` [Compound 039], the IC50 against GST-hMDM2 (aa1-188) is less than 10 nM; in assay [1] (Homo sapiens, SJSA-1, 7 h) it was less than 1000 nM.
The matching figures for `COc1ccc(S(=O)(=O)NC(=O)C[C@@]2(C)C[C@H](c3cccc(Cl)c3)[C@@H](c3ccc(Cl)cc3)N([C@H](CS(=N)(=O)C(C)C)C(C)C)C2=O)cc1` (stereo partly shown) [Compound 023]: 10 to 100 nM and less than 1000 nM.
Taken in the same sequence, the figures for `CC(C)[C@@H](CS(=N)(=O)C(C)C)N1C(=O)[C@@](C)(CC(=O)NC23CCC(C(=O)O)(CC2)CC3)C[C@H](c2cccc(Cl)c2)[C@H]1c1ccc(Cl)cc1` (stereo partly shown) [Compound 010] were 10 to 100 nM and 1000 to 10000 nM.
The matching figures for `CC(C)[C@@H](CS(=N)(=O)C(C)C)N1C(=O)[C@@](C)(CC(=O)NS(=O)(=O)C2(C)CC2)C[C@H](c2cccc(Cl)c2)[C@H]1c1ccc(Cl)cc1` (stereo partly shown) [Compound 019]: 10 to 100 nM and 1000 to 10000 nM.
Regarding `CC(C)[C@@H](CS(=N)(=O)C(C)C)N1C(=O)[C@@](C)(CC(=O)Nc2cccc(C(F)(F)F)c2)C[C@H](c2cccc(Cl)c2)[C@H]1c1ccc(Cl)cc1` (stereo partly shown) [Compound 016], the IC50 was greater than 100 nM against GST-hMDM2 (aa1-188) and 1000 to 10000 nM in assay [1] (Homo sapiens, SJSA-1, 7 h).
Taken in the same sequence, the figures for `CC(C)[C@@H](CS(=O)(=NC(=O)N1CCOCC1)C(C)C)N1C(=O)[C@@](C)(CC(=O)O)C[C@H](c2cccc(Cl)c2)[C@H]1c1ccc(Cl)cc1` (stereo partly shown) [Compound 046] were less than 10 nM and less than 1000 nM.
Taken in the same sequence, the figures for `COc1cc(NC(=O)C[C@@]2(C)C[C@H](c3cccc(Cl)c3)[C@@H](c3ccc(Cl)cc3)N([C@H](CS(=O)(=NC(N)=O)C(C)C)C(C)C)C2=O)ccc1C(=O)O` (stereo partly shown) [Compound 043] were less than 10 nM and less than 1000 nM.
The matching figures for `CC(C)[C@@H](CS(=N)(=O)C(C)C)N1C(=O)[C@@](C)(CC(=O)NS(=O)(=O)c2ccc(F)cc2)C[C@H](c2cccc(Cl)c2)[C@H]1c1ccc(Cl)cc1` (stereo partly shown) [Compound 022]: 10 to 100 nM and 1000 to 10000 nM.
Regarding `Cc1c(Br)cccc1NC(=O)C[C@@]1(C)C[C@H](c2cccc(Cl)c2)[C@@H](c2ccc(Cl)cc2)N([C@H](CS(=N)(=O)C(C)C)C(C)C)C1=O` (stereo partly shown) [Compound 013], the IC50 was greater than 100 nM against GST-hMDM2 (aa1-188) and 1000 to 10000 nM in assay [1] (Homo sapiens, SJSA-1, 7 h).
Take `CC(C)[C@@H](CS(=N)(=O)C(C)C)N1C(=O)[C@@](C)(CC(=O)Nc2ccc(F)c(Br)c2)C[C@H](c2cccc(Cl)c2)[C@H]1c1ccc(Cl)cc1` (stereo partly shown) [Compound 017]: the IC50 at GST-hMDM2 (aa1-188) was greater than 100 nM; in assay [1] (Homo sapiens, SJSA-1, 7 h), 1000 to 10000 nM.
The matching figures for `Cc1ccc(S(=N)(=O)NC(=O)C[C@@]2(C)C[C@H](c3cccc(Cl)c3)[C@@H](c3ccc(Cl)cc3)N([C@H](CS(=O)(=O)C(C)C)C(C)C)C2=O)cc1` (stereo partly shown) [Compound 029]: greater than 100 nM and 1000 to 10000 nM.
The matching figures for `CC(C)[C@@H](CS(=O)(=O)C(C)C)N1C(=O)[C@@](C)(CC(=O)NS(=N)(=O)C2CC2)C[C@H](c2cccc(Cl)c2)[C@H]1c1ccc(Cl)cc1` (stereo partly shown) [Compound 025]: 10 to 100 nM and 1000 to 10000 nM.
Taken in the same sequence, the figures for `COc1cc(C(=O)O)ccc1NC(=O)C[C@@]1(C)C[C@H](c2cccc(Cl)c2)[C@@H](c2ccc(Cl)cc2)N([C@H](C[S@](=O)(=NC(C)=O)C(C)C)C(C)C)C1=O` [Compound 053] were less than 10 nM and less than 1000 nM.
Turning to `COc1cc(C(=O)O)ccc1NC(=O)C[C@@]1(C)C[C@H](c2cccc(Cl)c2)[C@@H](c2ccc(Cl)cc2)N([C@H](C[S@](=O)(=NC(N)=O)C(C)C)C(C)C)C1=O` [Compound 054], the IC50 is less than 10 nM on GST-hMDM2 (aa1-188) and less than 1000 nM in assay [1] (Homo sapiens, SJSA-1, 7 h).
The matching figures for `CCN=S(=O)(C[C@H](C(C)C)N1C(=O)[C@@](C)(CC(=O)O)C[C@H](c2cccc(Cl)c2)[C@H]1c1ccc(Cl)cc1)C(C)C` (stereo partly shown) [Compound 035]: less than 10 nM and less than 1000 nM.
Turning to `COc1cc(NC(=O)C[C@@]2(C)C[C@H](c3cccc(Cl)c3)[C@@H](c3ccc(Cl)cc3)N([C@H](CS(=O)(=NC(=O)N3CCCC3)C(C)C)C(C)C)C2=O)ccc1C(=O)O` (stereo partly shown) [Compound 051], the IC50 was less than 10 nM on GST-hMDM2 (aa1-188) and less than 1000 nM in assay [1] (Homo sapiens, SJSA-1, 7 h).
On to `CC(C)[C@@H](CS(=O)(=O)C(C)C)N1C(=O)[C@@](C)(CC(=O)NS(=N)(=O)C2(C)CC2)C[C@H](c2cccc(Cl)c2)[C@H]1c1ccc(Cl)cc1` (stereo partly shown) [Compound 028A], for which the IC50 was 10 to 100 nM against GST-hMDM2 (aa1-188) and less than 1000 nM in assay [1] (Homo sapiens, SJSA-1, 7 h).
Taken in the same sequence, the figures for `COc1cc(C(=O)O)ccc1NC(=O)C[C@@]1(C)C[C@H](c2cccc(Cl)c2)[C@@H](c2ccc(Cl)cc2)N([C@H](CS(=N)(=O)C(C)C)C(C)C)C1=O` (stereo partly shown) [Compound 009] were less than 10 nM and 1000 to 10000 nM.
The matching figures for `CC(C)[C@@H](CS(=N)(=O)C(C)C)N1C(=O)[C@@](C)(CC(=O)Nc2ccc(F)cc2Br)C[C@H](c2cccc(Cl)c2)[C@H]1c1ccc(Cl)cc1` (stereo partly shown) [Compound 014]: greater than 100 nM and 1000 to 10000 nM.
In the case of `CC(C)[C@@H](CS(=N)(=O)C(C)C)N1C(=O)[C@@](C)(CC(=O)N[C@H]2CC[C@H](O)CC2)C[C@H](c2cccc(Cl)c2)[C@H]1c1ccc(Cl)cc1` (stereo partly shown) [Compound 011], the IC50 fell in the range of 10 to 100 nM against GST-hMDM2 (aa1-188) and 1000 to 10000 nM in assay [1] (Homo sapiens, SJSA-1, 7 h).
Consider `COc1cc(NC(=O)C[C@@]2(C)C[C@H](c3cccc(Cl)c3)[C@@H](c3ccc(Cl)cc3)N([C@H](CS(=O)(=NC(=O)N3CCOCC3)C(C)C)C(C)C)C2=O)ccc1C(=O)O` (stereo partly shown) [Compound 050], for which the IC50 was less than 10 nM at GST-hMDM2 (aa1-188) and less than 1000 nM in assay [1] (Homo sapiens, SJSA-1, 7 h).

For the origin of these results see patent US11299460B2, “MDM2 inhibitor, preparation method therefor, pharmaceutical composition thereof and use thereof” (SHANGHAI LONGWOOD BIOPHARMACEUTICALS CO., LTD., priority 2018, dated 2022).
